The subject of the test is P. aeruginosa 26. The experiment in a line: In vitro antibacterial activity, MIC by the two-fold agar-plate dilution method. To be noted: Pseudomonas aeruginosa, heart infusion agar, 37° C., 20 hours, overnight culture 10^8 viable cells per ml, read-out: MIC (minimal inhibitory concentration). Format: cell-based. Here is the method:
Now in order to show the utility of the object compound (I), the test data on MIC (minimal inhibitory concentration) of representative compound of this invention are shown in the following.
In vitro antibacterial activity was determined by the two-fold agar-plate dilution method as described below.
One loopful of an overnight culture of each test strain in Trypticase-soy broth (10^8 viable cells per ml) was streaked on heart infusion agar (HI-agar)containing graded concentrations of representative test compound, and the minimal inhibitory concentration (MIC) was expressed in terms of μg/ml after incubation at 37° C. for 20 hours.

Values after ≈ are worked out from the molar mass of the structure shown.

With `CC(C)(O/N=C(\C(=O)N[C@@H]1C(=O)N2C(C(=O)[O-])=C(C[N+](C)(C)Cc3cc(=O)c(O)c[nH]3)CS[C@H]12)c1nsc(N)n1)C(=O)O` [Test compound (1), 7β-[2-(5-Amino-1,2,4-thiadiazol-3-yl)-2-(1-carboxy-1-methylethoxyimino)acetamido]-3-[N,N-dimethyl-N-{(5-hydroxy-4-oxo-1,4-dihydropyridin-2-yl)methyl}ammonio]methyl-3-cephem-4-carboxylate (syn isomer)], the MIC is not above 0.025 µg/mL.

`CO/N=C(\C(=O)N[C@@H]1C(=O)N2C(C(=O)[O-])=C(C[N+]3(C)CCN(C(=O)c4cc(O)c(O)cn4)CC3)CS[C@H]12)c1nsc(N)n1` [Test compound (2), 7β-[2-(5-Amino-1,2,4-thiadiazol-3-yl)-2-methoxyiminoacetamido]-3-[1-methyl-4-(4,5-dihydroxy-2-pyridylcarbonyl)-1-piperazinio]methyl-3-cephem-4-carboxylate (syn isomer)]: the MIC amounted to 0.05 µg/mL (≈ 0.0789 µM).

The values are drawn from patent publication US5401734A, “Cephem compounds” (Fujisawa Phamaceutical Co., Ltd., priority 1988, dated 1995).
